Assays:
[1] = system: rhinoviruses and enteroviruses; details: cited from earlier work
[2] = cited from earlier work
[3] = cited from earlier work; for bioavailability / metabolization and excretion: in vivo
[4] = in vivo; cited from earlier work
[5] = system: 48 rhinovirus types and coxsackievirus A21, B3, enterovirus 70 and echovirus 11; details: cited from earlier work
[6] = cited from earlier work; remark: listed apart in the source
[7] = system: HRV A16; experiment: HRV A16 CPE inhibition assay; assay type: cell-based; details: Human rhinovirus sp.; HRV A16, cytopathic effect inhibition
Procedure: (§1) Bioactivity of the Compounds of the Invention was Determined Using the Following Methods. Determination of Drug Efficacy Against Picornaviruses Using Cytopathic Effect (CPE) Inhibition Assay
(§2) In the assay, HeLa (human cervical cancer cells), MRC-5 (human fetal lung fibroblast cells), and RD cells (derived from human rhabdomyosarcoma) were employed. For comparison, ribavirin (Riv), Pleconaril (pleco), and […] (BTA) were used as controls. Reagents were dissolved at a concentration of 10-40 mg/ml in 100% dimethyl sulfoxide (DMSO). Water-soluble reagents were dissolved in PBS (−) solution and stored at −20° C. On the day of the experiment, they were used in 3 fold to 5 fold concentrations in such a manner that the concentration of dimethyl sulfoxide in each well was between 0.5% and 1%.
(§3) Pharmaceutical efficacy was determined using a virus-induced cytopathic effect (CPE) inhibition assay. In this regard, after cells suitable for viruses were grown in 96-well plates, dilutions of viruses in DME supplemented with 2% FBS (DME/2% FBS) or MEM supplemented with 2% FBS (MEM/2% FBS) were inoculated in an amount of […] with a concentration corresponding to 100 CCID50 (50% cell culture infective dose) into each well of the plates, and incubated for 30 min-1 hr at 33° C. or 37° C. to allow the viruses to adsorb onto the cells. The culture medium was removed before aliquots of drug dilutions with various concentrations were added in an amount of 100 μl to each well. While HRV (human rhinovirus) was grown at 33° C., the other viruses were incubated in a 37° C. CO2 incubator for 2-3 days. Alternatively, the cells were cultured for 2-3 days without removal of the medium after they were added with 50 μl of each drug dilution having a 2-fold higher concentration and then with 50 μl of the virus dilution. Viruses were incubated in host HeLa cells at 37° C. for 2-3 days in DME/2% or MEM/2% FBS.
(§4) For HeLa cells, the drugs were measured for EC50 (50% maximal effective concentration), which is the concentration of a drug inducing a response halfway between the baseline and maximum, using an MTT assay. With regard to RD and MRC-5 cells, CPE was determined using FDA (Fluorescein diacetate) or MTT. In order to determine the effect of drug toxicity on efficacy results, at the time of inoculation with the virus, mock-infection was also included. A virus-free medium was added to a cell culture, which was then subjected to the same treatment as the mock-infected cells inoculated with the virus. That is, the medium was removed after one hour of incubation, and dilutions of drugs in the medium were added once more. Following incubation for 2-3 days, the cells were observed under a microscope and the drugs were determined for CC50 (50% cytotoxic concentration) at which 50% of the cells were killed, using an MTT assay in which counts of viable cells in mock-infected wells containing drugs were compared to those of viable cells in control wells containing no drugs. In an FDA hydrolysis assay, FDA was added to each well after removal of the medium, and incubated for 20-30 min before fluorescence intensity was measured using a spectrofluorometer to determine CPE in the same manner as in MTT.
(§5) In addition, antiviral effects can be calculated using Mathematical Formula 2 below: Antiviral Effect=[A(Drug/Virus)−A(Virus Control)/A(Cell control)−A(Virus Control)]
(§6) If the survival rate is 100%, its antiviral effect is 100% whereas if the survival rate is 0%, its antiviral effect is none. […]
(§7) Specifically, cells grown to confluence in 96-well plates were infected with 100 50% cell culture infected doses (CCID50) of virus. After an adsorption period of 2 hrs at 37° C., the virus was removed and serial dilutions of the compounds were added. […] After removal of the medium, 90 μl of a culture medium and 10 μl of MTS-phenazine methosulfate (Promega, Leiden, The Netherlands) were added to each well. […]

[8] = system: HRV A29; experiment: HRV A29 CPE inhibition assay; assay type: cell-based; details: Human rhinovirus sp.; HRV A29, cytopathic effect inhibition
Procedure: as §1, §2, §3, §4, §5, §6, §7

[9] = system: HRV A1B; experiment: HRV A1B CPE inhibition assay; assay type: cell-based; details: Human rhinovirus sp., cytopathic effect inhibition, read-out: HRV A1B_CPE (EC50 μM)
Procedure: as §1, §2, §3, §4, §5, §6, §7

[10] = system: HRV B14; experiment: HRV B14 CPE inhibition assay; assay type: cell-based; details: Human rhinovirus sp.; HRV B14, cytopathic effect inhibition
Procedure: as §1, §2, §3, §4, §5, §6, §7

[11] = system: C15_C3 REPLICON; experiment: C15_C3 replicon assay; assay type: cell-based
[12] = Cytotoxicity (CC50) in mock-infected cells, MTT assay; assay type: cell-based; details: human, HeLa cells (mock-infected), 50% cytotoxic concentration, read-out: CYTOTOX (CC50 μM)
Procedure: as §4
That is, the survival rate (% survival) of mock-infected cells for cytotoxicity measurement was calculated using the Mathematical Formula 1 below: Cell Drug=Survival by [A(Drug)−A(Background solution)/A(Cell control)−A(Background×100% Solution)]
While 100% cell survival means no cytotoxicity of the drug, the highest cytotoxicity is reflected by 0% cell survival. The 50% cytotoxic concentration was defined as the concentration required to reduce the cell number by 50%. This concentration of the drug is represented as CC50. Higher values mean lower cytotoxicity. […]
In Mathematical Formulae 3 and 4 above, • OD (CC) represents the OD of the background cell culture that is neither induced by a virus nor treated by chemical, • OD (VC) represents the OD of the control cell culture that is induced by a virus but not treated by chemical, • OD (Virus+Compound) represents the OD of the cell culture infected by a virus that has been treated with a concentrated compound, • OD (Compound) represents the OD of the cell culture that has been treated with a concentrated compound only, and • OD (Blank) represents the OD of the well to which only the cell culture has been added.
The effective concentration (EC50) represents the concentration of a drug at which 50% of cells are allowed to survive by CPE of an induced virus, and the cytotoxicity concentration (CC50) represents the concentration of a drug at which a compound has killed 50% of cells, and they were calculated by the logarithmic interpolation.

CCC(=O)C(CCCCCCOc1ccc(OC)cc1Cl)C(=O)CC [Arildone]
antiviral effects in the cell culture [1]: very good antiviral effects | solubility [2]: poor solubility | bioavailability [3]: low bioavailability

Cc1cc(CCCCCCCOc2ccc(C3=NCCO3)cc2)on1 [disoxaril]
antiviral effects in the cell culture [1]: very good antiviral effects | bioavailability [3]: low bioavailability | metabolization and excretion [3]: rapid metabolization and excretion

CCOC(=O)c1ccc(OCCC2CCN(c3ccc(C)nn3)CC2)cc1 [pirodavir]
antiviral effects in the cell culture [1]: very good antiviral effects

Cc1cc(CCCCCOc2c(Cl)cc(C3=NCCO3)cc2Cl)on1 [WIN 54954]
metabolization and excretion [3]: rapid metabolization and excretion | side effects [4]: skin rash

CCOC(=O)/C=C/[C@H](C[C@@H]1CCNC1=O)NC(=O)[C@@H](CC(=O)[C@@H](NC(=O)c1cc(C)on1)C(C)C)Cc1ccc(F)cc1 [AG 7088]
concentration range of effect in the cell culture [5]: nanomolar concentration range

CC(C)S(=O)(=O)n1c(N)nc2ccc(/C(=N/O)c3ccccc3)cc21 [Enviroxime]
pharmacokinetics in clinical studies [6]: bad pharmacokinetics | therapeutic effects in clinical studies [6]: insignificant or few therapeutic effects

Cc1cc(CCCOc2c(C)cc(-c3noc(C(F)(F)F)n3)cc2C)on1 [Pleconaril]
oral bioavailability ([3]; oral): very good oral bioavailability

Cc1c(C(=O)N[C@]23C(=O)c4c(N)cccc4[C@@]2(O)Oc2cc([C@H](C)C4CC4)ccc23)[nH]c(=O)n1C [Example 22, N-((4bR,9bR)-1-amino-7-((R)-1-cyclopropylethyl)-4b-hydroxy-10-oxo-4b,10-dihydro-9bH-indeno[1,2-b]benzofuran-9b-yl)-1,5-dimethyl-2-oxo-2,3-dihydro-1H-imidazole-4-carboxamide]
EC50 [7]: 0.063 µM | EC50 [8]: 0.023 µM | EC50 [9]: 0.041 µM | EC50 [10]: 0.016 µM | EC50 [11]: 1.89 µM | CC50 [12]: 34.9 µM

From patent publication US12286423B2, “Antiviral 1,3-di-oxo-indene compounds” (Novartis AG, priority 2020, dated 2025)
